Data taken from PubChem BioAssay (NCI).
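Values below derive from 48-hour exposures of cells grown in 96-well plates, with endpoints linearly interpolated between the two concentrations bracketing the appropriate inhibition level. TGI: total growth inhibition.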 Where a SMILES comes first, the peptide text is derived from it. The star is where a group is joined. Boc = CC(C)(C)OC(=O)*

How the values were obtained:
Test in all cases: NCI-60 cell line screen, 48 h
[1] = test system: NCI-H23 lung
[2] = test system: TK-10 renal
[3] = test system: BT-549 breast
[4] = test system: A549 NSCLC
[5] = test system: SK-MEL-28 melanoma
[6] = test system: SF-539 CNS
[7] = test system: MDA-MB-435
[8] = test system: NCI-H460 lung
[9] = test system: RXF 393 renal
[10] = test system: SK-OV-3 ovarian
[11] = test system: EKVX NSCLC
[12] = test system: HOP-62 NSCLC
[13] = test system: SR leukemia
[14] = test system: UO-31 renal
[15] = test system: MOLT-4 leukemia
[16] = test system: IGROV1 ovarian
[17] = test system: SK-MEL-5 melanoma
[18] = test system: MDA-N
[19] = test system: MALME-3M melanoma
[20] = test system: A498 renal

SMILES	TGI [1]	TGI [2]	TGI [3]	TGI [4]	TGI [5]	TGI [6]	TGI [7]	TGI [8]	TGI [9]	TGI [10]	TGI [11]	TGI [12]	TGI [13]	TGI [14]	TGI [15]	TGI [16]	TGI [17]	TGI [18]	TGI [19]	TGI [20]
CCCCCCCCCCCCOCCCCCCCCC/C=C/c1ccc2c(c1)OCCOCCOCCOCCO2	30.9 µM	41.5 µM	40.6 µM	36.6 µM	> 100 µM	31.4 µM	33.8 µM	37.9 µM	36.4 µM	34.4 µM	61.6 µM	51.4 µM	49.1 µM	39.4 µM	> 100 µM	50.6 µM	29.7 µM	36.2 µM	66.8 µM	–
C=C[C@@]1(C)CC(=O)[C@]2(O)[C@@]3(C)[C@@H](OC(C)=O)CCC(C)(C)[C@@H]3[C@H](O)[C@H](OC(C)=O)[C@@]2(C)O1	> 100 µM	–	> 100 µM	> 100 µM	> 100 µM	> 100 µM	> 100 µM	> 100 µM	–	> 100 µM	> 100 µM	> 100 µM	> 100 µM	> 100 µM	> 100 µM	> 100 µM	–	> 100 µM	–	> 100 µM
CC(C)(C)c1cc(C(C)(C)C)c(P=C(Cl)Cl)c(C(C)(C)C)c1 (stereo not drawn)	> 100 µM	> 100 µM	> 100 µM	> 100 µM	> 100 µM	> 100 µM	> 100 µM	> 100 µM	–	> 100 µM	> 100 µM	> 100 µM	> 100 µM	> 100 µM	> 100 µM	> 100 µM	> 100 µM	> 100 µM	> 100 µM	> 100 µM
COC(=O)C(Cc1c[nH]c2ccccc12)NC(=O)C(Cc1c[nH]c2ccccc12)NC(=O)C(Cc1c[nH]c2ccccc12)NC(=O)C(Cc1c[nH]c2ccccc12)NC(=O)C(Cc1c[nH]c2ccccc12)NC(=O)OC(C)(C)C (stereo not drawn) (Boc-WWWWW-OMe; configuration not given here)	> 100 µM	> 100 µM	> 100 µM	> 100 µM	> 100 µM	–	> 100 µM	> 100 µM	–	–	–	> 100 µM	> 100 µM	> 100 µM	> 100 µM	> 100 µM	56.5 µM	> 100 µM	> 100 µM	–
CCOC(=O)C12C3CCC1C2C(=O)C3 (stereo not drawn)	> 100 µM	> 100 µM	> 100 µM	> 100 µM	> 100 µM	> 100 µM	> 100 µM	> 100 µM	> 100 µM	> 100 µM	> 100 µM	> 100 µM	> 100 µM	> 100 µM	> 100 µM	> 100 µM	> 100 µM	> 100 µM	> 100 µM	–
